Experimental findings from patent US9481654B2, “Compositions and methods for inhibition of the JAK pathway” (Rigel Pharmaceuticals, Inc., priority 2006, dated 2016) are described below.

By IC50 is commonly meant the point on the concentration scale where inhibition reaches its midpoint. A low value points to greater potency.

Common to all, as to type: cell-based
Experiment [1] relates to IL-4 stimulated CD23 upregulation in human Ramos B cells (JAK-1/JAK-3, Stat-6). Nature of the experiment: Assay for Ramos B-Cell Line Stimulated with IL-4 (CD23 upregulation, FACS). The following applies: Table III Example 3. In outline:
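Log-phase Ramos B cells (5×10^4 per point, RPMI with 5% serum) pre-incubated with compound or DMSO 1 h at 37° C, then stimulated with IL-4 at 50 units/mL final for 20-24 h. CD23 upregulation measured by staining and flow cytometry.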

In experiment [2] the test system is primary human T-cells (IL-2 induced proliferation, JAK-1/JAK-3, Stat-5). Description: Primary Human T-Cell Proliferation Assay Stimulated with IL-2 (CellTiter-Glo). The conditions noted are these: Table III Example 4. In outline:
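Pre-activated peripheral-blood T-cells (TCR/CD28 stimulated, IL-2-maintained) were IL-2-depleted, then plated in Yssel's medium with 80 U/mL IL-2 in the cell suspension and compound in duplicate. Proliferation ran 72 h at 37 °C; viable cells quantified by CellTiter-Glo ATP luminescence, with IL-2-omitted wells as unstimulated control.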

Experiment [3] relates to IFNγ induced ICAM-1 (CD54) up-regulation in U937 human monocytic cells (JAK/Stat pathway). Nature of the experiment: U937 IFNγ ICAM1 FACS Assay. The conditions noted are these: Table III Example 6; 10 ng/mL IFNγ, 18-24 hours. The source says:
A549 lung epithelial cells and U937 cells up-regulate ICAM-1 (CD54) surface expression in response to a variety of different stimuli. Therefore, using ICAM-1 expression as readout, test compound effects on different signaling pathways can be assessed in the same cell type. Stimulation with IL-1β through the IL-1β receptor activates the TRAF6/NFκB pathway resulting in up-regulation of ICAM-1. IFNγ induces ICAM-1 up-regulation through activation of the JAK1/JAK2 pathway. The up-regulation of ICAM-1 can be quantified by flow cytometry across a compound dose curve and EC50 values are calculated. Exemplary assays of this type are described in greater detail in Examples 5 and 6. U937 human monocytic cells up-regulate ICAM-1 (CD54) surface expression in response to a variety of different stimuli. Therefore, using ICAM-1 expression as readout, compound effects on different signaling pathways can be assessed in the same cell type. IFNγ up-regulates ICAM-1 through activation of the JAK/Stat pathway. In this example, the up-regulation of ICAM-1 by IFNγ was assessed. […] The cells were then plated at a concentration of 100,000 cells per 160 μL in 96 well flat bottom plates. The test compounds were then diluted as follows: 10 mM test compound was diluted 1:5 in DMSO (3 μL 10 mM test compound in 12 μL DMSO), followed by a 1:3 serial dilution of test compound in DMSO (6 μL test compound serially diluted into 12 μL DMSO to give 3-fold dilutions). […] For control wells, 4 μL of DMSO was diluted into 76 μL 10% RPMI. […] The cells and compounds were then pre-incubated for 30 minutes at 37° C. with 5% CO2. […] The cells were kept under conditions for stimulation for 18-24 hours at 37° C. with 5% CO2. […] Cells were spun down at 1000 rpm for 5 minutes at 4° C., following which the supernatant was removed. […] The cells were then incubated on ice in the dark for 30 minutes. […] After suspension, the cells were centrifuged at 1000 rpm for 5 min at 4° C. […] Detection was performed using a BD LSR I System Flow Cytometer, purchased from BD Biosciences of San Jose, Calif. The live cells were gated for live scatter and the geometric mean of ICAM-APC was measured (Becton-Dickinson CellQuest software version 3.3, Franklin Lakes, N.J.). Both % live cells and ICAM-1 expression was analyzed. The assays for the test compounds were carried out in parallel with a control compound of known activity.

Structures are written as SMILES.

For `Cc1cnc(Nc2ccc(S(N)(=O)=O)cc2)nc1Nc1ccc(CN(C)S(=O)(=O)C2CC2)cc1` [Compound I-127, N2-(4-aminosulfonyl)phenyl-N4-[4-(N-cyclopropylsulfonyl-N-methyl)aminomethyl]phenyl-5-methyl-2,4-pyrimidinediamine], the IC50 came out at 126 nM in experiment [1], 233 nM in experiment [2] and 616 nM in experiment [3].
`CCOC(=NS(=O)(=O)c1cccc(Nc2ncc(C)c(Nc3cccc(CNS(=O)(=O)C4CC4)c3)n2)c1)OCC` [Compound I-128, N4-(3-cyclopropylsulfonylaminomethyl)phenyl-N2-[3-(diethoxy)carbonimidylsulfonyl]phenyl-5-methyl-2,4-pyrimidinediamine]: the IC50 in experiment [1] was 157 nM; in experiment [2], 62.2 nM; in experiment [3], 707 nM.
In the same order, the values of `Cc1cnc(Nc2ccc(S(N)(=O)=O)cc2)nc1Nc1ccc(CNS(=O)(=O)C2CC2)c(Cl)c1` [Compound I-129, N2-(4-aminosulfonyl)phenyl-N4-(3-chloro-4-cyclopropylsulfonylaminomethyl)phenyl-5-methyl-2,4-pyrimidinediamine] are 161 nM, 432 nM and 2510 nM.
For `Cc1cnc(Nc2cccc(S(=O)(=O)Nc3ccccc3)c2)nc1Nc1ccc(CNS(=O)(=O)C2CC2)cc1` [Compound I-150, N4-(4-cyclopropylsulfonylaminomethyl)phenyl-5-methyl-N2-(3-phenylaminosulfonyl)phenyl-2,4-pyrimidinediamine], in that order: 88.6 nM, 127 nM and 565 nM.
For `CNS(=O)(=O)c1ccc(Nc2ncc(C)c(Nc3ccc(CNS(=O)(=O)C4CC4)cc3)n2)cc1` [Compound I-163, N4-(4-cyclopropylsulfonylaminomethyl)phenyl-5-methyl-N2-(4-methylaminosulfonyl)phenyl-2,4-pyrimidinediamine], in that order: 46.7 nM, 52.7 nM and 143 nM.
Consider `Cc1cnc(Nc2ccc(S(=O)(=O)NC3CCCC3)cc2)nc1Nc1ccc(CNS(=O)(=O)C2CC2)cc1` [Compound I-166, N2-(4-cyclopentylaminosulfonyl)phenyl-N4-(4-cyclopropylsulfonylaminomethyl)phenyl-5-methyl-2,4-pyrimidinediamine], for which the IC50 in experiment [1] came to 82.5 nM; in experiment [2] it was 212 nM; in experiment [3], 280 nM.
In the case of `CCC(=O)N(Cc1ccc(Nc2nc(Nc3ccc(S(N)(=O)=O)cc3)ncc2C)cc1)S(=O)(=O)C1CC1` [Compound I-167, N2-(4-aminosulfonyl)phenyl-N4-[4-(N-cyclopropylsulfonyl-N-propionyl)aminomethyl]phenyl-5-methyl-2,4-pyrimidinediamine], the IC50 in experiment [1] came out at 132 nM; in experiment [2], 116 nM; in experiment [3] it was 587 nM.
As for `Cc1cnc(Nc2cccc(S(=O)(=O)NCc3ccncc3)c2)nc1Nc1ccc(CNS(=O)(=O)C2CC2)cc1` [Compound I-169, N4-(4-cyclopropylsulfonylaminomethyl)phenyl-5-methyl-N2-[3-(4-pyridylmethyl)aminosulfonyl]phenyl-2,4-pyrimidinediamine], the IC50 came out at 140 nM in experiment [1], 206 nM in experiment [2] and 478 nM in experiment [3].
In the same order, the values of `Cc1cnc(Nc2cccc(S(=O)(=O)NC3CCCC3)c2)nc1Nc1ccc(CNS(=O)(=O)C2CC2)cc1` [Compound I-170, N2-(3-cyclopentylaminosulfonyl)phenyl-N4-(4-cyclopropylsulfonylaminomethyl)phenyl-5-methyl-2,4-pyrimidinediamine] are 136 nM, 172 nM and 238 nM.
For `Cc1cnc(Nc2ccc(S(=O)(=O)NC(C)C)cc2)nc1Nc1ccc(CNS(=O)(=O)C2CC2)cc1` [Compound I-172, N4-(4-cyclopropylsulfonylaminomethyl)phenyl-N2-(4-isopropylaminosulfonyl)phenyl-5-methyl-2,4-pyrimidinediamine], the values for the concentration for half-maximal inhibition (IC50) in experiment [1], in experiment [2] and in experiment [3] were 52.1 nM, 81 nM and 123 nM, respectively.
Regarding `CCCNS(=O)(=O)c1ccc(Nc2ncc(C)c(Nc3ccc(CNS(=O)(=O)C4CC4)cc3)n2)cc1` [Compound I-177, N4-(4-cyclopropylsulfonylaminomethyl)phenyl-5-methyl-N2-(4-propylaminosulfonyl)phenyl-2,4-pyrimidinediamine], the IC50 was 17.7 nM in experiment [1], 160 nM in experiment [2] and 107 nM in experiment [3].
In the same order, the values of `Cc1cnc(Nc2ccc(S(=O)(=O)NCC3CC3)cc2)nc1Nc1ccc(CNS(=O)(=O)C2CC2)cc1` [Compound I-179, N2-(4-cyclopropylmethylaminosulfonyl)phenyl-N4-(4-cyclopropylsulfonylaminomethyl)phenyl-5-methyl-2,4-pyrimidinediamine] are 45.9 nM, 290 nM and 365 nM.
Take `COCCNS(=O)(=O)c1ccc(Nc2ncc(C)c(Nc3ccc(CNS(=O)(=O)C4CC4)cc3)n2)cc1` [Compound I-183, N4-(4-cyclopropylsulfonylaminomethyl)phenyl-N2-[4-(2-methoxyethyl)aminosulfonyl]phenyl-5-methyl-2,4-pyrimidinediamine]: the IC50 in experiment [1] amounted to 66.7 nM; in experiment [2], 155 nM; in experiment [3], 207 nM.
Regarding `Cc1ccc(Nc2ncc(C)c(Nc3cccc(CNS(=O)(=O)C4CC4)c3)n2)cc1S(=O)(=O)NC(C)C` [Compound I-209, N4-(3-cyclopropylsulfonylaminomethyl)phenyl-N2-(3-isopropylaminosulfonyl-4-methyl)phenyl-5-methyl-2,4-pyrimidinediamine], the figures for the IC50 in experiment [1], in experiment [2] and in experiment [3] were 113 nM, 131 nM and 529 nM, respectively.
As for `CNS(=O)(=O)c1cc(Nc2ncc(C)c(Nc3cccc(CNS(=O)(=O)C4CC4)c3)n2)ccc1C` [Compound I-211, N4-(3-cyclopropylsulfonylaminomethyl)phenyl-5-methyl-N2-(4-methyl-3-methylaminosulfonyl)phenyl-2,4-pyrimidinediamine], the IC50 was 103 nM in experiment [1], 48.2 nM in experiment [2] and 177 nM in experiment [3].
For `CCNS(=O)(=O)c1ccc(Nc2ncc(C)c(Nc3cccc(CNS(=O)(=O)C4CC4)c3)n2)cc1` [Compound I-212, N4-(3-cyclopropylsulfonylaminomethyl)phenyl-N2-(4-ethylaminosulfonyl)phenyl-5-methyl-2,4-pyrimidinediamine], in that order: 236 nM, 160 nM and 215 nM.
For `CCNS(=O)(=O)c1cc(Nc2ncc(C)c(Nc3cccc(CNS(=O)(=O)C4CC4)c3)n2)ccc1C` [Compound I-213, N4-(3-cyclopropylsulfonylaminomethyl)phenyl-N2-(3-ethylaminosulfonyl-4-methyl)phenyl-5-methyl-2,4-pyrimidinediamine], in that order: 88.2 nM, 91.8 nM and 125 nM.
In the same order, the values of `C#CCNS(=O)(=O)c1cc(Nc2ncc(C)c(Nc3cccc(CNS(=O)(=O)C4CC4)c3)n2)ccc1C` [Compound I-214, N4-(3-cyclopropylsulfonylaminomethyl)phenyl-5-methyl-N2-(4-methyl-3-propargylaminosulfonyl)phenyl-2,4-pyrimidinediamine] are 162 nM, 136 nM and 190 nM.
For `CCCNS(=O)(=O)c1cc(Nc2ncc(C)c(Nc3cccc(CNS(=O)(=O)C4CC4)c3)n2)ccc1C` [Compound I-215, N4-(3-cyclopropylsulfonylaminomethyl)phenyl-5-methyl-N2-(4-methyl-3-propylaminosulfonyl)phenyl-2,4-pyrimidinediamine], the IC50 in experiment [1] was determined as 132 nM; in experiment [2] it was 116 nM; in experiment [3] it was 385 nM.
